From patent publication US20170190671A1, “BIS(ARYL)CATECHOL DERIVATIVES AS HERBICIDES” (E I DU PONT DE NEMOURS AND COMPANY, priority 2014, published 2017)

What was measured:
Test in all cases: Test D postemergence
Format in all cases: in vivo
Conditions in all cases: scale 0 to 100
[1] = test system: chamomile (scentless chamomile, Matricaria inodora)
How it was run: (§1)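 Visual injury scored 0–100 (0 = no effect, 100 = complete control) against controls 14 to 21 days after treatment in a controlled growth environment. Compounds were applied in surfactant-containing non-phytotoxic solvent, preemergence onto silt loam-sown seeds or postemergence onto 1- to 4-leaf plants.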

[2] = test system: deadnettle (henbit deadnettle, Lamium amplexicaule)
How it was run: as §1

[3] = test system: lambsquarters (Chenopodium album)
How it was run: as §1

[4] = test system: pigweed (Amaranthus retroflexus)
How it was run: as §1

[5] = test system: windgrass (Apera spica-venti)
How it was run: as §1

[6] = test system: winter barley (Hordeum vulgare)
How it was run: as §1

kochia (Kochia scoparia) = test system: kochia (Kochia scoparia)
How it was run: as §1

[7] = test system: wild mustard (Sinapis arvensis)
How it was run: as §1

[8] = test system: oilseed rape (Brassica napus)
How it was run: as §1

[9] = test system: spring barley (Hordeum vulgare)
How it was run: as §1

[10] = test system: Italian ryegrass (Lolium multiflorum)
How it was run: as §1

[11] = test system: spring wheat (Triticum aestivum)
How it was run: as §1

[12] = test system: canarygrass (Phalaris minor)
How it was run: as §1

[13] = test system: field poppy (Papaver rhoeas)
How it was run: as §1

[14] = test system: bluegrass (annual bluegrass, Poa annua)
How it was run: as §1

[15] = test system: Russian thistle (Salsola kali)
How it was run: as §1

[16] = test system: wild buckwheat (Polygonum convolvulus)
How it was run: as §1

[17] = test system: blackgrass (Alopecurus myosuroides)
How it was run: as §1

[18] = test system: green foxtail (Setaria viridis)
How it was run: as §1

[19] = test system: wild radish (Raphanus raphanistrum)
How it was run: as §1

What does the source list for Fc1cccc(Oc2ncc(C(F)(F)F)cn2)c1Oc1ncc(Cl)cn1 [Compound 42, 5-chloro-2-[2-fluoro-6-[[5-(trifluoromethyl)-2-pyrimidinyl]oxy]phenoxy]pyrimidine]?
Plant response rating, Chamomile ([1]; 16 g ai/ha): 0; Plant response rating, Chamomile ([1]; 31 g ai/ha): 0; Plant response rating, Chamomile ([1]; 62 g ai/ha): 5; Plant response rating, Chamomile ([1]; 125 g ai/ha): 15; Plant response rating, Deadnettle ([2]; 16 g ai/ha): 35; Plant response rating, Deadnettle ([2]; 31 g ai/ha): 40; Plant response rating, Deadnettle ([2]; 62 g ai/ha): 60; Plant response rating, Deadnettle ([2]; 125 g ai/ha): 75; Plant response rating, Lambsquarters ([3]; 16 g ai/ha): 70; Plant response rating, Lambsquarters ([3]; 31 g ai/ha): 85; Plant response rating, Lambsquarters ([3]; 62 g ai/ha): 90; Plant response rating, Lambsquarters ([3]; 125 g ai/ha): 95; Plant response rating, Pigweed ([4]; 16 g ai/ha): 100; Plant response rating, Pigweed ([4]; 31 g ai/ha): 100; Plant response rating, Pigweed ([4]; 62 g ai/ha): 100; Plant response rating, Pigweed ([4]; 125 g ai/ha): 100; Plant response rating, Windgrass ([5]; 16 g ai/ha): 25; Plant response rating, Windgrass ([5]; 31 g ai/ha): 40; Plant response rating, Windgrass ([5]; 62 g ai/ha): 50; Plant response rating, Windgrass ([5]; 125 g ai/ha): 60; Plant response rating, Barley, Winter ([6]; 16 g ai/ha): 5; Plant response rating, Barley, Winter ([6]; 31 g ai/ha): 5; Plant response rating, Barley, Winter ([6]; 62 g ai/ha): 10; Plant response rating, Barley, Winter ([6]; 125 g ai/ha): 15; Plant response rating, Kochia (kochia (Kochia scoparia); 16 g ai/ha): 85; Plant response rating, Kochia (kochia (Kochia scoparia); 31 g ai/ha): 100; Plant response rating, Kochia (kochia (Kochia scoparia); 62 g ai/ha): 100; Plant response rating, Kochia (kochia (Kochia scoparia); 125 g ai/ha): 100; Plant response rating, Mustard, Wild ([7]; 16 g ai/ha): 70; Plant response rating, Mustard, Wild ([7]; 31 g ai/ha): 70; Plant response rating, Mustard, Wild ([7]; 62 g ai/ha): 100; Plant response rating, Mustard, Wild ([7]; 125 g ai/ha): 100; Plant response rating, Oilseed Rape ([8]; 16 g ai/ha): 75; Plant response rating, Oilseed Rape ([8]; 31 g ai/ha): 75; Plant response rating, Oilseed Rape ([8]; 62 g ai/ha): 85; Plant response rating, Oilseed Rape ([8]; 125 g ai/ha): 95; Plant response rating, Barley, Spring ([9]; 16 g ai/ha): 10; Plant response rating, Barley, Spring ([9]; 31 g ai/ha): 15; Plant response rating, Barley, Spring ([9]; 62 g ai/ha): 20; Plant response rating, Barley, Spring ([9]; 125 g ai/ha): 30; Plant response rating, Ryegrass, Italian ([10]; 16 g ai/ha): 20; Plant response rating, Ryegrass, Italian ([10]; 31 g ai/ha): 50; Plant response rating, Ryegrass, Italian ([10]; 62 g ai/ha): 60; Plant response rating, Ryegrass, Italian ([10]; 125 g ai/ha): 65; Plant response rating, Wheat, Spring ([11]; 16 g ai/ha): 0; Plant response rating, Wheat, Spring ([11]; 31 g ai/ha): 5; Plant response rating, Wheat, Spring ([11]; 62 g ai/ha): 5; Plant response rating, Wheat, Spring ([11]; 125 g ai/ha): 15; Plant response rating, Canarygrass ([12]; 16 g ai/ha): 35; Plant response rating, Canarygrass ([12]; 31 g ai/ha): 65; Plant response rating, Canarygrass ([12]; 62 g ai/ha): 70; Plant response rating, Canarygrass ([12]; 125 g ai/ha): 75; Plant response rating, Field Poppy ([13]; 16 g ai/ha): 55; Plant response rating, Field Poppy ([13]; 31 g ai/ha): 75; Plant response rating, Field Poppy ([13]; 62 g ai/ha): 100; Plant response rating, Field Poppy ([13]; 125 g ai/ha): 100; Plant response rating, Bluegrass ([14]; 16 g ai/ha): 50; Plant response rating, Bluegrass ([14]; 31 g ai/ha): 50; Plant response rating, Bluegrass ([14]; 62 g ai/ha): 60; Plant response rating, Bluegrass ([14]; 125 g ai/ha): 70; Plant response rating, Russian Thistle ([15]; 16 g ai/ha): 10; Plant response rating, Russian Thistle ([15]; 31 g ai/ha): 10; Plant response rating, Russian Thistle ([15]; 62 g ai/ha): 25; Plant response rating, Russian Thistle ([15]; 125 g ai/ha): 70; Plant response rating, Buckwheat, Wild ([16]; 16 g ai/ha): 75; Plant response rating, Buckwheat, Wild ([16]; 31 g ai/ha): 80; Plant response rating, Buckwheat, Wild ([16]; 62 g ai/ha): 95; Plant response rating, Buckwheat, Wild ([16]; 125 g ai/ha): 100; Plant response rating, Blackgrass ([17]; 16 g ai/ha): 20; Plant response rating, Blackgrass ([17]; 31 g ai/ha): 55; Plant response rating, Blackgrass ([17]; 62 g ai/ha): 60; Plant response rating, Blackgrass ([17]; 125 g ai/ha): 75; Plant response rating, Foxtail, Green ([18]; 16 g ai/ha): 10; Plant response rating, Foxtail, Green ([18]; 31 g ai/ha): 15; Plant response rating, Foxtail, Green ([18]; 62 g ai/ha): 60; Plant response rating, Foxtail, Green ([18]; 125 g ai/ha): 70; Plant response rating, Radish, Wild ([19]; 16 g ai/ha): 80; Plant response rating, Radish, Wild ([19]; 31 g ai/ha): 75; Plant response rating, Radish, Wild ([19]; 62 g ai/ha): 85; Plant response rating, Radish, Wild ([19]; 125 g ai/ha): 90
